In patent publication US10448639B2, “Fungicidal pyrazoles” (FMC CORPORATION, priority 2009, dated 2019):

Legend:
Alternaria solani = assay: Test C: tomato early blight, preventive spray on tomato seedlings, visual disease rating; details: tomato early blight; 100 = 100% disease control, 0 = no disease control relative to controls
Botrytis cinerea = assay: Test B: tomato Botrytis, preventive spray on tomato seedlings, visual disease rating; details: tomato Botrytis; 100 = 100% disease control, 0 = no disease control relative to controls
[1] = tested on: Puccinia recondita f. sp. tritici; assay: Test H: wheat leaf rust, curative spray on inoculated wheat seedlings, visual disease rating; details: wheat leaf rust, sprayed after inoculation; 100 = 100% disease control, 0 = no disease control relative to controls
Septoria tritici = assay: Test G: wheat leaf blotch, preventive spray on wheat seedlings, visual disease rating; details: wheat leaf blotch, sprayed the day before inoculation; 100 = 100% disease control, 0 = no disease control relative to controls
Septoria nodorum = assay: Test F: Septoria glume blotch, preventive spray on wheat seedlings, visual disease rating; details: Septoria glume blotch on wheat; 100 = 100% disease control, 0 = no disease control relative to controls
[2] = tested on: Erysiphe graminis f sp. tritici; assay: Test J: wheat powdery mildew, preventive spray on wheat seedlings, visual disease rating; details: wheat powdery mildew, sprayed the day before inoculation; 100 = 100% disease control, 0 = no disease control relative to controls
[3] = tested on: Puccinia recondita f. sp. tritici; assay: Test I: wheat leaf rust, preventive spray on wheat seedlings, visual disease rating; details: wheat leaf rust, sprayed the day before inoculation; 100 = 100% disease control, 0 = no disease control relative to controls

SMILES	Test C disease control rating (Alternaria solani) [%]	Test B disease control rating (Botrytis cinerea) [%]	Test H disease control rating [1] [%]	Test G disease control rating (Septoria tritici) [%]	Test F disease control rating (Septoria nodorum) [%]	Test J disease control rating [2] [%]	Test I disease control rating [3] [%]
Cc1nn(C)c(Nc2ncc(Cl)cc2Cl)c1-c1cccc(Cl)c1Cl [compound 303]	0	99	0	98	0	71	92
Cc1nn(C)c(Oc2c(F)cc(C#N)cc2F)c1-c1ccccc1F [compound 305]	99	99	0	100	94	99	99
Cc1nn(C)c(Oc2c(F)cc(C#N)cc2F)c1-c1ccccc1C(F)(F)F [compound 306]	0	7	0	93	0	64	28
Cc1nn(C)c(Oc2c(F)cc(C#N)cc2F)c1-c1cc(C(F)(F)F)ccc1Cl [compound 307]	0	0	0	0	0	0	0
Cc1nn(C)c(Oc2c(F)cc(C#N)cc2F)c1-c1cccnc1Cl [compound 308]	0	81	9	98	0	0	100
COc1ccc(-c2c(C)nn(C)c2Oc2ccc(C#N)cc2F)c(Cl)c1 [compound 310]	99	100	0	100	99	96	99
COc1ccc(-c2c(C)nn(C)c2Oc2ccc(C#N)cc2Cl)c(Cl)c1 [compound 311]	0	100	0	100	60	91	99
Cc1nn(C)c(Nc2ccc(F)cc2Br)c1-c1ccc(F)cc1Br [compound 313]	97	100	91	100	51	100	100
Cc1nn(C)c(Nc2ccc(F)cc2Cl)c1-c1ccc(F)cc1Br [compound 314]	95	100	94	100	0	100	100
Cc1nn(C)c(Nc2ccc(F)cc2F)c1-c1ccccc1Cl [compound 315]	99	99	0	100	0	100	96
COc1ccc(-c2c(C)nn(C)c2Oc2ccc(C#N)cc2Cl)c(Br)c1 [compound 318]	0	99	0	100	0	89	97
COc1ccc(-c2c(C)nn(C)c2Oc2ccc(C#N)cc2F)c(Br)c1 [compound 319]	88	92	0	100	100	95	99
Cc1nn(C)c(Nc2ncc(Cl)cc2Cl)c1-c1ccccc1Cl [compound 320]	67	99	0	100	0	98	99
Cc1nn(C)c(Nc2ncc(Cl)cc2Cl)c1-c1c(F)cccc1F [compound 321]	99	100	9	100	78	100	99
COc1ccc(Nc2c(-c3ccc(F)cc3Cl)c(C)nn2C)c(Cl)c1 [compound 322]	93	100	99	100	0	100	100
COc1ccc(Nc2c(-c3ccc(F)cc3Br)c(C)nn2C)c(Cl)c1 [compound 324]	83	99	63	100	0	99	99
CCOc1ccc(Nc2c(-c3ccc(F)cc3Cl)c(C)nn2C)c(Cl)c1 [compound 325]	0	100	0	100	0	99	97
Cc1nn(C)c(Nc2ccc(Cl)cc2Cl)c1-c1c(Cl)cccc1Cl [compound 327]	0	99	0	100	0	99	96
Cc1nn(C)c(Nc2ncc(Cl)cc2Cl)c1-c1ccc(F)cc1F [compound 328]	86	100	0	100	0	100	98
Cc1nn(C)c(Oc2c(F)cc(C#N)cc2F)c1-c1cc(F)ccc1F [compound 329]	99	100	0	100	69	100	100
Cc1nn(C)c(Nc2ccc(F)cc2F)c1-c1ccc(C#N)cc1Cl [compound 331]	80	100	8	100	73	97	100
COc1ccc(Nc2c(-c3c(Cl)cccc3Cl)c(C)nn2C)cc1 [compound 333]	0	100	9	100	0	0	74
Cc1nn(C)c(Nc2ccc(F)cc2Cl)c1-c1c(Cl)cccc1Cl [compound 334]	0	100	0	100	0	100	97
Cc1nn(C)c(Nc2ccc(F)cc2)c1-c1c(Cl)cccc1Cl [compound 337]	0	99	9	99	0	98	41
Cc1nn(C)c(Nc2ccc(F)cc2Cl)c1-c1ccc(C#N)cc1Cl [compound 338]	37	100	8	100	40	99	100
Cc1nn(C)c(Nc2ccc(F)cc2F)c1-c1c(Cl)cccc1Cl [compound 339]	0	100	0	100	0	100	98
